{"source": "ChEMBL document CHEMBL5375962", "about": "(J Med Chem, 2023)", "key": {"Ketohexokinase [1]": {"molecular_target": "T1, Ketohexokinase (Homo sapiens, UniProt P50053)", "T1 sequence (P50053 whole entry)": "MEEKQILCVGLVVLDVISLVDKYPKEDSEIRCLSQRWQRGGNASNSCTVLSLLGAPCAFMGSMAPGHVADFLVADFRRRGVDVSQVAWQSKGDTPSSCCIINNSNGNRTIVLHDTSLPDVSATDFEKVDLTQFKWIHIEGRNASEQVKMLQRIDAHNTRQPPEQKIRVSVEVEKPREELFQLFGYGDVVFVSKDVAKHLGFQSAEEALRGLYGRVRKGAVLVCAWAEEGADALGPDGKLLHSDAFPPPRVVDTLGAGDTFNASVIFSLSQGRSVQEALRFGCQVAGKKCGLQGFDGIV", "experiment": "Inhibition of human KHK-C preincubated for 15 mins followed by substrate addition and measured after 20 mins in presence of ATP by Rapidfire MS analysis"}, "Ketohexokinase [2]": {"molecular_target": "T1, Ketohexokinase", "experiment": "Inhibition of KHK in human HepG2 cells incubated for 3 hrs by Rapidfire MS analysis", "assay_type": "cell-based"}, "[3]": {"experiment": "Inhibition of mouse KHK-A"}, "[4]": {"experiment": "Metabolic stability in mouse liver microsomes assessed as compound degradation measured after 30 mins", "assay_type": "ADME, Microsome", "settings": "read-out: Drug degradation; call rule not given here"}, "[5]": {"experiment": "Metabolic stability in rat liver microsomes assessed as compound degradation measured after 30 mins", "assay_type": "ADME, Microsome", "settings": "read-out: Drug degradation"}, "[6]": {"experiment": "Metabolic stability in dog liver microsomes assessed as compound degradation measured after 30 mins", "assay_type": "ADME, Canis lupus familiaris, Microsome", "settings": "read-out: Drug degradation"}, "[7]": {"experiment": "Metabolic stability in human liver microsomes assessed as compound degradation measured after 30 mins", "assay_type": "ADME, Microsome", "settings": "read-out: Drug degradation"}, "[8]": {"experiment": "Thermodynamic solubility of the compound […] at pH 7.4", "assay_type": "physicochemical", "settings": "read-out: Therm_solubility"}, "Hepatocyte": {"tested_on": "Hepatocyte", "experiment": "Cytotoxicity against rat Primary hepatocyte", "assay_type": "toxicity, cell-based", "settings": "hepatocytes"}, "[9]": {"experiment": "Permeability in MDCK cells assessed as drug transport measured over 1 hr in presence of P-gp", "assay_type": "ADME, cell-based, Canis lupus familiaris", "settings": "dog"}, "[10]": {"experiment": "Clearance in rat hepatocytes measured per 10^6 cells", "assay_type": "ADME, cell-based, Hepatocyte", "settings": "read-out: CLH"}, "[11]": {"experiment": "Clearance in dog hepatocytes measured per 10^6 cells", "assay_type": "ADME, cell-based, Canis lupus familiaris, Hepatocyte", "settings": "read-out: CLH"}, "[12]": {"experiment": "Clearance in human hepatocytes measured per 10^6 cells", "assay_type": "ADME, cell-based, Hepatocyte", "settings": "read-out: CLH"}, "[13]": {"experiment": "AUC in rat at 1 mg/kg, iv measured after 12 hrs", "assay_type": "ADME, organism-based", "parameters": "time 12 hrs, dose 1 mg/kg, route iv", "settings": "in vivo"}, "[14]": {"experiment": "Cmax in rat at 1 mg/kg, iv measured after 12 hrs", "assay_type": "ADME, organism-based", "parameters": "dose 1 mg/kg, time 12 hrs, route iv", "settings": "in vivo"}, "[15]": {"experiment": "Clearance in rat at 1 mg/kg, iv measured after 12 hrs", "assay_type": "ADME, organism-based", "settings": "in vivo"}, "[16]": {"experiment": "Half life in rat at 1 mg/kg, iv measured after 12 hrs", "assay_type": "ADME, organism-based", "settings": "in vivo"}, "[17]": {"experiment": "Volume of distribution in rat at 1 mg/kg, iv measured after 12 hrs", "assay_type": "ADME, organism-based", "settings": "in vivo"}, "[18]": {"experiment": "AUC in dog at 1 mg/kg, iv", "assay_type": "ADME, organism-based, Canis lupus familiaris", "parameters": "dose 1 mg/kg, route iv", "settings": "in vivo"}, "[19]": {"experiment": "Cmax in dog at 1 mg/kg, iv", "assay_type": "ADME, organism-based, Canis lupus familiaris", "parameters": "dose 1 mg/kg, route iv", "settings": "in vivo"}, "[20]": {"experiment": "Clearance in dog at 1 mg/kg, iv", "assay_type": "ADME, organism-based, Canis lupus familiaris", "settings": "in vivo"}, "[21]": {"experiment": "Half life in dog at 1 mg/kg, iv", "assay_type": "ADME, organism-based, Canis lupus familiaris", "settings": "in vivo"}, "[22]": {"experiment": "Volume of distribution in dog at 1 mg/kg, iv", "assay_type": "ADME, organism-based, Canis lupus familiaris", "settings": "in vivo"}, "[23]": {"experiment": "Cmax in rat at 2 mg/kg, po measured after 12 hrs", "assay_type": "ADME, organism-based", "parameters": "time 12 hrs, dose 2 mg/kg, route po", "settings": "in vivo"}, "[24]": {"experiment": "Tmax in rat at 2 mg/kg, po measured after 12 hrs", "assay_type": "ADME, organism-based", "settings": "in vivo"}, "[25]": {"experiment": "AUC in rat at 2 mg/kg, po measured after 12 hrs", "assay_type": "ADME, organism-based", "parameters": "time 12 hrs, dose 2 mg/kg, route po", "settings": "in vivo"}, "[26]": {"experiment": "Half life in rat at 2 mg/kg, po measured after 12 hrs", "assay_type": "ADME, organism-based", "settings": "in vivo"}, "[27]": {"experiment": "Oral bioavailability in rat at 2 mg/kg measured after 12 hrs", "assay_type": "ADME, organism-based", "settings": "in vivo"}, "[28]": {"experiment": "Cmax in dog at 2 mg/kg, po", "assay_type": "ADME, organism-based, Canis lupus familiaris", "parameters": "dose 2 mg/kg, route po", "settings": "in vivo"}, "[29]": {"experiment": "Tmax in dog at 2 mg/kg, po", "assay_type": "ADME, organism-based, Canis lupus familiaris", "settings": "in vivo"}, "[30]": {"experiment": "AUC in dog at 2 mg/kg, po", "assay_type": "ADME, organism-based, Canis lupus familiaris", "parameters": "dose 2 mg/kg, route po", "settings": "in vivo"}, "[31]": {"experiment": "Half life in dog at 2 mg/kg, po", "assay_type": "ADME, organism-based, Canis lupus familiaris", "settings": "in vivo"}, "[32]": {"experiment": "Oral bioavailability in dog at 2 mg/kg", "assay_type": "ADME, organism-based, Canis lupus familiaris", "settings": "in vivo"}, "[33]": {"experiment": "Unbound fraction in mouse plasma at 1 uM", "assay_type": "ADME, cell-free"}, "[34]": {"experiment": "Unbound fraction in rat plasma at 1 uM", "assay_type": "ADME, cell-free"}, "[35]": {"experiment": "Unbound fraction in dog plasma at 1 uM", "assay_type": "ADME, cell-free, Canis lupus familiaris"}, "[36]": {"experiment": "Unbound fraction in human plasma at 1 uM", "assay_type": "ADME, cell-free"}, "[37]": {"experiment": "Drug distribution in mouse kidney at 30 mg/kg, po measured at 180 mins", "assay_type": "ADME, organism-based", "settings": "in vivo, 3 h"}, "[38]": {"experiment": "Drug distribution in mouse liver at 30 mg/kg, po measured at 180 mins", "assay_type": "ADME, organism-based", "settings": "in vivo, 3 h"}, "[39]": {"experiment": "Drug distribution in mouse heart at 30 mg/kg, po measured at 180 mins", "assay_type": "ADME, organism-based", "settings": "in vivo, 3 h"}, "Mus musculus": {"tested_on": "Mus musculus", "experiment": "Reduction in fructose level in 5 hrs fasted C57B6 mouse by measuring pharmacodynamic response administered via oral gavage for 30 mins followed by oral fructose challenge and measured upto 180 mins by oral fructose tolerance test", "assay_type": "functional", "settings": "dose 30-100 mg/kg, time […]"}}}
{"compound": "C[C@H]1CCN1c1nc(-c2cnn(CC(=O)N3CCNCC3)c2)cc(C(F)(F)F)n1", "note": "[LY-3522348]", "values": [{"measurement": "IC50", "setting": "Ketohexokinase [1]", "value": 20, "unit": "nM"}, {"measurement": "IC50", "setting": "Ketohexokinase [2]", "value": 41, "unit": "nM"}, {"measurement": "IC50", "setting": "[3]", "value": 14, "unit": "nM"}, {"measurement": "metabolised at 0.5 h", "setting": "[4]", "value": 17, "unit": "%"}, {"measurement": "metabolised at 0.5 h", "setting": "[5]", "value": 18, "unit": "%"}, {"measurement": "metabolised at 0.5 h", "setting": "[6]", "value": 28, "unit": "%"}, {"measurement": "metabolised at 0.5 h", "setting": "[7]", "value": 0, "unit": "%"}, {"measurement": "solubility thermodynamic", "setting": "[8]", "value": 520, "unit": "µg/mL"}, {"measurement": "LC20", "setting": "Hepatocyte", "value": "> 50000", "unit": "nM"}, {"measurement": "Drug transport", "setting": "[9]", "value": 4.4, "unit": "%"}, {"measurement": "hepatocyte CLint", "setting": "[10]", "value": 2.2, "unit": "µL/min/1e6 cells"}, {"measurement": "hepatocyte CLint", "setting": "[11]", "value": "< 1.8", "unit": "µL/min/1e6 cells"}, {"measurement": "hepatocyte CLint", "setting": "[12]", "value": "< 1.8", "unit": "µL/min/1e6 cells"}, {"measurement": "AUC at 12 h", "setting": "[13]", "value": 7.06, "unit": "µM·h"}, {"measurement": "Cmax", "setting": "[14]", "value": 942, "unit": "nM"}, {"measurement": "clearance", "setting": "[15]", "value": 6, "unit": "mL/min/kg"}, {"measurement": "half-life", "setting": "[16]", "value": 13, "unit": "h"}, {"measurement": "Vd", "setting": "[17]", "value": 6.5, "unit": "L/kg"}, {"measurement": "AUC", "setting": "[18]", "value": 12.9, "unit": "µM·h"}, {"measurement": "Cmax", "setting": "[19]", "value": 3000, "unit": "nM"}, {"measurement": "clearance", "setting": "[20]", "value": 3, "unit": "mL/min/kg"}, {"measurement": "half-life", "setting": "[21]", "value": 28, "unit": "h"}, {"measurement": "Vd", "setting": "[22]", "value": 7.8, "unit": "L/kg"}, {"measurement": "Cmax", "setting": "[23]", "value": 717, "unit": "nM"}, {"measurement": "Tmax", "setting": "[24]", "value": 4.7, "unit": "h"}, {"measurement": "AUC at 12 h", "setting": "[25]", "value": 11.6, "unit": "µM·h"}, {"measurement": "half-life", "setting": "[26]", "value": 13, "unit": "h"}, {"measurement": "bioavailability", "setting": "[27]", "value": 83, "unit": "%"}, {"measurement": "Cmax", "setting": "[28]", "value": 657, "unit": "nM"}, {"measurement": "Tmax", "setting": "[29]", "value": 1.7, "unit": "h"}, {"measurement": "AUC", "setting": "[30]", "value": 23.2, "unit": "µM·h"}, {"measurement": "half-life", "setting": "[31]", "value": 37, "unit": "h"}, {"measurement": "bioavailability", "setting": "[32]", "value": 87, "unit": "%"}, {"measurement": "fraction unbound at 1 µM", "setting": "[33]", "value": 0.15}, {"measurement": "fraction unbound at 1 µM", "setting": "[34]", "value": 0.18}, {"measurement": "fraction unbound at 1 µM", "setting": "[35]", "value": 0.24}, {"measurement": "fraction unbound at 1 µM", "setting": "[36]", "value": 0.15}, {"measurement": "Drug uptake", "setting": "[37]", "value": "Active"}, {"measurement": "Drug uptake", "setting": "[38]", "value": "Active"}, {"measurement": "Drug uptake", "setting": "[39]", "value": "Active"}, {"measurement": "Activity", "setting": "Mus musculus", "value": "Dose-Dependent Effect"}]}
